Experimental data published in patent US9993464B2 (SANOFI, priority 2011, dated 2018).
Several values for one entry are separate records, joined by “and”; a condition that tells them apart may be missing. Equal values may be shown once. Read-outs that look alike come from different tables or passages of the source.

Columns and labels:
models of thrombosis [1] = settings: porcine; cited from earlier work
models of thrombosis [2] = settings: canine; cited from earlier work
factor Xa = biological target: T1, factor Xa (Homo sapiens, UniProt P00742); settings: patients with stable coronary artery disease; cited from earlier work
T1 construct: host or cells: blood of patients (in vivo, clinical trial)

[3] = Level of impurities in dependency on Otamixaban concentration and autoclaving (HPLC), Example 7; type: physicochemical; settings: autoclaving
From the text: The appropriate pH value was adjusted by using sodium hydroxide solution (1 M sodium hydroxide) or diluted hydrochloric acid (1 M hydrochloric acid).

models of thrombosis [4] = settings: rodent; cited from earlier work
[5] = Level of impurities in dependency on pH and storage time (HPLC), Example 8; type: physicochemical; settings: 40° C./75% RH
Protocol: The appropriate pH value was adjusted by using sodium hydroxide solution (1 M sodium hydroxide) or diluted hydrochloric acid (1 M hydrochloric acid). The prepared vials were autoclaved one time and were stored at 40° C. and 75% RH (relative humidity).

acute coronary syndrome = settings: humans; cited from earlier work
[6] = Level of impurities in dependency on pH and repeated autoclaving (HPLC), Example 6; type: physicochemical
Protocol: The appropriate pH value was adjusted by using sodium hydroxide solution (1 M sodium hydroxide) or diluted hydrochloric acid (1 M hydrochloric acid). […] HP Zorbax SB-C18, 3.5 μm • Column material: stainless steel • Column length: 150 mm • Column internal diameter: 4.6 mm • Equilibration of the column: Column must be rinsed with mobile phase B (% B=25) for at least 60 minutes at a flow rate of 1 mL/min prior to sample injection. • Storage of the column: Column can be stored in acetonitrile/water=20/80 (v/v) Mobile Phase A […] The mobile phase was filtered through a 1.5 μm filter. Typically, add 500 mL of mobile phase A to 500 mL of acetonitrile. Mix and degas. [table] Procedure • Flow rate: 1 mL/min • Injection volume: 40 μl • Auto sampler temperature: Set autosampler temperature at +12° C. • Column temperature: […]

[7] = tested on: prothrombin fragments 1+2; settings: dose-ranging clinical trial; highest dose regimen; cited from earlier work
[8] = pH 2.5, number of autoclaving 0
[9] = pH 2.5, number of autoclaving 1
[10] = pH 3.2, number of autoclaving 0
[11] = pH 3.2, number of autoclaving 1
[12] = pH 3.2, number of autoclaving 3
[13] = pH 3.5, number of autoclaving 0
[14] = pH 3.5, number of autoclaving 1
[15] = pH 3.7, number of autoclaving 0
[16] = pH 3.7, number of autoclaving 1
[17] = pH 3.7, number of autoclaving 3
[18] = pH 4.0, number of autoclaving 0
[19] = pH 4.0, number of autoclaving 1
[20] = pH 4.2, number of autoclaving 0
[21] = pH 4.5, number of autoclaving 0
[22] = pH 4.5, number of autoclaving 1
[23] = pH 4.7, number of autoclaving 0
[24] = pH 4.7, number of autoclaving 2

T1 sequence (P00742 235-488 limits assumed): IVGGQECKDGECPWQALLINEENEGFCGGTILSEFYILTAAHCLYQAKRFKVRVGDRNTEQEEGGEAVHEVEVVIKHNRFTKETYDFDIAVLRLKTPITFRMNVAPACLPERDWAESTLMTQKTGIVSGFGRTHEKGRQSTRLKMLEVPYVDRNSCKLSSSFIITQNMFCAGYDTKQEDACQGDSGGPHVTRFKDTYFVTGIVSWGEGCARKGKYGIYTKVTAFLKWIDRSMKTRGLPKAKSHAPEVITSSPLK
T1 sequence (P00742 41-179 partner limits assumed): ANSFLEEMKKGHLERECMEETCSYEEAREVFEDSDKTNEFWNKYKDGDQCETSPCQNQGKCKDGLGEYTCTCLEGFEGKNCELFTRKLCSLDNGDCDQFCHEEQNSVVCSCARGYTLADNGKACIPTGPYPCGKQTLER

Increase of Formula II (carbamimidoyl-benzyl butyric acid) ([5]; pH 2.5, storage time 0 months): 0.33%
Increase of Formula III (carbamoyl-benzyl butyric acid methyl ester) ([5]; pH 2.5, storage time 0 months): 0.71%
Increase of Formula III (carbamoyl-benzyl butyric acid methyl ester) ([5]; pH 2.5, storage time 1 months): 0.77%
Increase of Formula III (carbamoyl-benzyl butyric acid methyl ester) ([5]; pH 2.5, storage time 3 months): 0.86%
Increase of Formula II (carbamimidoyl-benzyl butyric acid) ([5]; pH 2.5, storage time 6 months): 7.10%
Increase of Formula III (carbamoyl-benzyl butyric acid methyl ester) ([5]; pH 2.5, storage time 6 months): 0.98%
Increase of Formula II (carbamimidoyl-benzyl butyric acid) ([5]; pH 3.0, storage time 0 months): 0.18%
Increase of Formula III (carbamoyl-benzyl butyric acid methyl ester) ([5]; pH 3.0, storage time 0 months): 0.74%
Increase of Formula II (carbamimidoyl-benzyl butyric acid) ([5]; pH 3.0, storage time 1 months): 0.58%
Increase of Formula III (carbamoyl-benzyl butyric acid methyl ester) ([5]; pH 3.0, storage time 1 months): 0.82%
Increase of Formula III (carbamoyl-benzyl butyric acid methyl ester) ([5]; pH 3.0, storage time 3 months): 0.96%
Increase of Formula II (carbamimidoyl-benzyl butyric acid) ([5]; pH 3.2, storage time 0 months): 0.15%
Increase of Formula III (carbamoyl-benzyl butyric acid methyl ester) ([5]; pH 3.2, storage time 0 months): 0.76%
Increase of Formula II (carbamimidoyl-benzyl butyric acid) ([5]; pH 3.2, storage time 1 months): 0.41%
Increase of Formula III (carbamoyl-benzyl butyric acid methyl ester) ([5]; pH 3.2, storage time 1 months): 0.85%
Increase of Formula II (carbamimidoyl-benzyl butyric acid) ([5]; pH 3.2, storage time 3 months): 0.93%
Increase of Formula III (carbamoyl-benzyl butyric acid methyl ester) ([5]; pH 3.2, storage time 3 months): 1.00%
Increase of Formula II (carbamimidoyl-benzyl butyric acid) ([5]; pH 3.5, storage time 0 months): 0.12%
Increase of Formula III (carbamoyl-benzyl butyric acid methyl ester) ([5]; pH 3.5, storage time 0 months): 0.81%
Increase of Formula II (carbamimidoyl-benzyl butyric acid) ([5]; pH 3.5, storage time 1 months): 0.27%
Increase of Formula III (carbamoyl-benzyl butyric acid methyl ester) ([5]; pH 3.5, storage time 1 months): 0.91%
Increase of Formula II (carbamimidoyl-benzyl butyric acid) ([5]; pH 3.5, storage time 3 months): 0.55%
Increase of Formula II (carbamimidoyl-benzyl butyric acid) ([5]; pH 3.5, storage time 6 months): 0.99%
Increase of Formula II (carbamimidoyl-benzyl butyric acid) ([5]; pH 3.7, storage time 0 months): 0.11%
Increase of Formula III (carbamoyl-benzyl butyric acid methyl ester) ([5]; pH 3.7, storage time 0 months): 0.87%
Increase of Formula II (carbamimidoyl-benzyl butyric acid) ([5]; pH 3.7, storage time 1 months): 0.22%
Increase of Formula III (carbamoyl-benzyl butyric acid methyl ester) ([5]; pH 3.7, storage time 1 months): 0.96%
Increase of Formula II (carbamimidoyl-benzyl butyric acid) ([5]; pH 3.7, storage time 3 months): 0.42%
Increase of Formula II (carbamimidoyl-benzyl butyric acid) ([5]; pH 3.7, storage time 6 months): 0.72%
Increase of Formula II (carbamimidoyl-benzyl butyric acid) ([5]; pH 4.0, storage time 0 months): 0.12%
Increase of Formula III (carbamoyl-benzyl butyric acid methyl ester) ([5]; pH 4.0, storage time 0 months): 0.95%
Increase of Formula II (carbamimidoyl-benzyl butyric acid) ([5]; pH 4.0, storage time 1 months): 0.18%
Increase of Formula II (carbamimidoyl-benzyl butyric acid) ([5]; pH 4.0, storage time 3 months): 0.32%
Increase of Formula II (carbamimidoyl-benzyl butyric acid) ([5]; pH 4.0, storage time 6 months): 0.52%
Increase of Formula II (carbamimidoyl-benzyl butyric acid) ([5]; pH 4.2, storage time 0 months): 0.13%
Increase of Formula II (carbamimidoyl-benzyl butyric acid) ([5]; pH 4.2, storage time 1 months): 0.18%
Increase of Formula III (carbamoyl-benzyl butyric acid methyl ester) ([5]; pH 4.2, storage time 1 months): 1.20%
Increase of Formula II (carbamimidoyl-benzyl butyric acid) ([5]; pH 4.2, storage time 3 months): 0.27%
Increase of Formula II (carbamimidoyl-benzyl butyric acid) ([5]; pH 4.2, storage time 6 months): 0.43%
Increase of Formula II (carbamimidoyl-benzyl butyric acid) ([5]; pH 4.5, storage time 0 months): 0.15%
Increase of Formula III (carbamoyl-benzyl butyric acid methyl ester) ([5]; pH 4.5, storage time 0 months): 1.40%
Increase of Formula II (carbamimidoyl-benzyl butyric acid) ([5]; pH 4.5, storage time 1 months): 0.20%
Increase of Formula II (carbamimidoyl-benzyl butyric acid) ([5]; pH 4.5, storage time 3 months): 0.30%
Increase of Formula II (carbamimidoyl-benzyl butyric acid) ([5]; pH 4.5, storage time 6 months): 0.44%
Increase of Formula II (carbamimidoyl-benzyl butyric acid) ([5]; pH 4.7, storage time 0 months): 0.20%
Increase of Formula II (carbamimidoyl-benzyl butyric acid) ([5]; pH 4.7, storage time 1 months): 0.25%
Increase of Formula II (carbamimidoyl-benzyl butyric acid) ([5]; pH 4.7, storage time 3 months): 0.36%
Increase of Formula II (carbamimidoyl-benzyl butyric acid) ([5]; pH 4.7, storage time 6 months): 0.52%
Increase of Formula II (carbamimidoyl-benzyl butyric acid) [6, 8]: 0.10%
Increase of Formula III (carbamoyl-benzyl butyric acid methyl ester) [6, 8]: 0.39%
Increase of Formula II (carbamimidoyl-benzyl butyric acid) [6, 9]: 0.33%
Increase of Formula III (carbamoyl-benzyl butyric acid methyl ester) [6, 9]: 0.71%
Increase of Formula II (carbamimidoyl-benzyl butyric acid) ([6]; pH 2.5, number of autoclaving 2): 0.56%
Increase of Formula III (carbamoyl-benzyl butyric acid methyl ester) ([6]; pH 3.0, number of autoclaving 0): 0.39%
Increase of Formula III (carbamoyl-benzyl butyric acid methyl ester) ([6]; pH 3.0, number of autoclaving 1): 0.74%
Increase of Formula II (carbamimidoyl-benzyl butyric acid) [6, 10]: 0.08%
Increase of Formula III (carbamoyl-benzyl butyric acid methyl ester) [6, 10]: 0.39%
Increase of Formula II (carbamimidoyl-benzyl butyric acid) [6, 11]: 0.15%
Increase of Formula III (carbamoyl-benzyl butyric acid methyl ester) [6, 11]: 0.76%
Increase of Formula II (carbamimidoyl-benzyl butyric acid) ([6]; pH 3.2, number of autoclaving 2): 0.21%
Increase of Formula II (carbamimidoyl-benzyl butyric acid) [6, 12]: 0.27%
Increase of Formula III (carbamoyl-benzyl butyric acid methyl ester) [6, 12]: 1.50%
Increase of Formula II (carbamimidoyl-benzyl butyric acid) [6, 13]: 0.08%
Increase of Formula III (carbamoyl-benzyl butyric acid methyl ester) [6, 13]: 0.39%
Increase of Formula II (carbamimidoyl-benzyl butyric acid) [6, 14]: 0.12%
Increase of Formula III (carbamoyl-benzyl butyric acid methyl ester) [6, 14]: 0.81%
Increase of Formula II (carbamimidoyl-benzyl butyric acid) ([6]; pH 3.5, number of autoclaving 2): 0.17%
Increase of Formula II (carbamimidoyl-benzyl butyric acid) ([6]; pH 3.5, number of autoclaving 3): 0.21%
Increase of Formula II (carbamimidoyl-benzyl butyric acid) [6, 15]: 0.08%
Increase of Formula III (carbamoyl-benzyl butyric acid methyl ester) [6, 15]: 0.39%
Increase of Formula II (carbamimidoyl-benzyl butyric acid) [6, 16]: 0.11% and 0.12%
Increase of Formula III (carbamoyl-benzyl butyric acid methyl ester) [6, 16]: 0.87% and 0.84%
Increase of Formula II (carbamimidoyl-benzyl butyric acid) ([6]; pH 3.7, number of autoclaving 2): 0.16%
Increase of Formula II (carbamimidoyl-benzyl butyric acid) [6, 17]: 0.20% and 0.19%
Increase of Formula III (carbamoyl-benzyl butyric acid methyl ester) [6, 17]: 1.80%
Increase of Formula II (carbamimidoyl-benzyl butyric acid) [6, 18]: 0.08%
Increase of Formula III (carbamoyl-benzyl butyric acid methyl ester) [6, 18]: 0.39%
Increase of Formula II (carbamimidoyl-benzyl butyric acid) [6, 19]: 0.12%
Increase of Formula III (carbamoyl-benzyl butyric acid methyl ester) [6, 19]: 0.95%
Increase of Formula II (carbamimidoyl-benzyl butyric acid) ([6]; pH 4.0, number of autoclaving 2): 0.16%
Increase of Formula II (carbamimidoyl-benzyl butyric acid) ([6]; pH 4.0, number of autoclaving 3): 0.19%
Increase of Formula II (carbamimidoyl-benzyl butyric acid) [6, 20]: 0.07%
Increase of Formula III (carbamoyl-benzyl butyric acid methyl ester) [6, 20]: 0.39%
Increase of Formula II (carbamimidoyl-benzyl butyric acid) ([6]; pH 4.2, number of autoclaving 1): 0.13%
Increase of Formula II (carbamimidoyl-benzyl butyric acid) ([6]; pH 4.2, number of autoclaving 2): 0.18%
Increase of Formula II (carbamimidoyl-benzyl butyric acid) ([6]; pH 4.2, number of autoclaving 3): 0.22%
Increase of Formula II (carbamimidoyl-benzyl butyric acid) [6, 21]: 0.08%
Increase of Formula III (carbamoyl-benzyl butyric acid methyl ester) [6, 21]: 0.39%
Increase of Formula II (carbamimidoyl-benzyl butyric acid) [6, 22]: 0.15%
Increase of Formula III (carbamoyl-benzyl butyric acid methyl ester) [6, 22]: 1.40%
Increase of Formula II (carbamimidoyl-benzyl butyric acid) ([6]; pH 4.5, number of autoclaving 2): 0.24%
Increase of Formula II (carbamimidoyl-benzyl butyric acid) ([6]; pH 4.5, number of autoclaving 3): 0.30%
Increase of Formula II (carbamimidoyl-benzyl butyric acid) [6, 23]: 0.08%
Increase of Formula III (carbamoyl-benzyl butyric acid methyl ester) [6, 23]: 0.39%
Increase of Formula II (carbamimidoyl-benzyl butyric acid) ([6]; pH 4.7, number of autoclaving 1): 0.20%
Increase of Formula II (carbamimidoyl-benzyl butyric acid) [6, 24]: 0.32%
Increase of Formula III (carbamoyl-benzyl butyric acid methyl ester) [6, 24]: 3.20%
Increase of Formula II (carbamimidoyl-benzyl butyric acid) ([6]; pH 4.7, number of autoclaving 3): 0.43%
Compound: COC(=O)[C@H](Cc1cccc(C(=N)N)c1)[C@@H](C)NC(=O)c1ccc(-c2cc[n+]([O-])cc2)cc1 (mixture of isomers) [Otamixaban, Methyl (2R,3R)-2-{3-[amino(imino)methyl]benzyl}-3-{[4-(1-oxidopyridin-4-yl)benzoyl]amino}butanoate]
efficacy in models of thrombosis (models of thrombosis [1]): highly efficacious
efficacy in models of thrombosis (models of thrombosis [2]): highly efficacious
factor Xa inhibition in patients (factor Xa): dose-dependent, rapid direct factor Xa inhibition
dependence of Formula III level on Otamixaban concentration or vial volume [3]: independent from the concentration of Otamixaban or vial volume
efficacy in models of thrombosis (models of thrombosis [4]): highly efficacious
clinical findings: efficacy, safety, tolerability (acute coronary syndrome): efficacious, safe and well tolerated
reduction of prothrombin fragments 1+2 versus unfractionated heparin [7]: reduced prothrombin fragments 1+2 significantly more than unfractionated heparin
